Laboratory results published in article PMC8391988 (2021).

tested on: poly rA–poly rU (RNA, polymer) A/U; assay: fluorimetric titration, Scatchard; details: Na+ (sodium cacodylate, I = 0.05 M); pH 7.0; apparent; per phosphate; n fixed at 0.2; dye 1.3–1.5 × 10^-7 M; per base

Compound | log Ks
CC(O)C[n+]1c(C=C2C=CN(CCC[N+]3(C)CCC(CCCC4CC[N+](C)(CCCN5C=CC(=Cc6sc7ccccc7[n+]6CC(C)O)c6ccccc65)CC4)CC3)c3ccccc32)sc2ccccc21 (stereo not drawn) | 6.14
CC(O)C[n+]1c(C=C2C=CN(CCC[N+](C)(C)CCC[N+](C)(C)CCCN3C=CC(=Cc4sc5ccccc5[n+]4CC(C)O)c4ccccc43)c3ccccc32)sc2ccccc21 (stereo not drawn) | 7.15
CC(O)C[n+]1c(C=C2C=CN(CCC[n+]3ccc(CCCc4cc[n+](CCCN5C=CC(=Cc6sc7ccccc7[n+]6CC(C)O)c6ccccc65)cc4)cc3)c3ccccc32)sc2ccccc21 (stereo not drawn) | 6.22
CC(O)C[n+]1c(C=C2C=CN(CCC[N+](C)(C)CCC[N+](C)(C)C)c3ccccc32)sc2ccccc21 (stereo not drawn) | 6.11
CC(O)C[n+]1c(C=C2C=CN(CCC[N+]3(C)CCC(CCCC4CC[N+](C)(CCCN5C=CC(=Cc6sc7ccccc7[n+]6CC(C)O)c6ccc(Cl)cc65)CC4)CC3)c3cc(Cl)ccc32)sc2ccccc21 (stereo not drawn) | 6.14

tested on: poly dAdT–poly dAdT (DNA, polymer) AT; assay: fluorimetric titration, Scatchard; details: Na+ (sodium cacodylate, I = 0.05 M); pH 7.0; apparent; per phosphate; n fixed at 0.2; dye 1.3–1.5 × 10^-7 M; per base

Compound | log Ks
CC(O)C[n+]1c(C=C2C=CN(CCC[N+]3(C)CCC(CCCC4CC[N+](C)(CCCN5C=CC(=Cc6sc7ccccc7[n+]6CC(C)O)c6ccccc65)CC4)CC3)c3ccccc32)sc2ccccc21 (stereo not drawn) | 6.98
CC(O)C[n+]1c(C=C2C=CN(CCC[N+](C)(C)CCC[N+](C)(C)CCCN3C=CC(=Cc4sc5ccccc5[n+]4CC(C)O)c4ccccc43)c3ccccc32)sc2ccccc21 (stereo not drawn) | 7.23
CC(O)C[n+]1c(C=C2C=CN(CCC[n+]3ccc(CCCc4cc[n+](CCCN5C=CC(=Cc6sc7ccccc7[n+]6CC(C)O)c6ccccc65)cc4)cc3)c3ccccc32)sc2ccccc21 (stereo not drawn) | 6.68
CC(O)C[n+]1c(C=C2C=CN(CCC[N+](C)(C)CCC[N+](C)(C)C)c3ccccc32)sc2ccccc21 (stereo not drawn) | 6.65
CC(O)C[n+]1c(C=C2C=CN(CCC[N+]3(C)CCC(CCCC4CC[N+](C)(CCCN5C=CC(=Cc6sc7ccccc7[n+]6CC(C)O)c6ccc(Cl)cc65)CC4)CC3)c3cc(Cl)ccc32)sc2ccccc21 (stereo not drawn) | 6.05

tested on: poly dG–poly dC (DNA, polymer) G/C; assay: fluorimetric titration, Scatchard; details: Na+ (sodium cacodylate, I = 0.05 M); pH 7.0; apparent; per phosphate; n fixed at 0.2; dye 1.3–1.5 × 10^-7 M; per base

Compound | log Ks
CC(O)C[n+]1c(C=C2C=CN(CCC[N+]3(C)CCC(CCCC4CC[N+](C)(CCCN5C=CC(=Cc6sc7ccccc7[n+]6CC(C)O)c6ccccc65)CC4)CC3)c3ccccc32)sc2ccccc21 (stereo not drawn) | 6.63
CC(O)C[n+]1c(C=C2C=CN(CCC[N+](C)(C)CCC[N+](C)(C)CCCN3C=CC(=Cc4sc5ccccc5[n+]4CC(C)O)c4ccccc43)c3ccccc32)sc2ccccc21 (stereo not drawn) | 7.55
CC(O)C[n+]1c(C=C2C=CN(CCC[n+]3ccc(CCCc4cc[n+](CCCN5C=CC(=Cc6sc7ccccc7[n+]6CC(C)O)c6ccccc65)cc4)cc3)c3ccccc32)sc2ccccc21 (stereo not drawn) | 6.78
CC(O)C[n+]1c(C=C2C=CN(CCC[N+](C)(C)CCC[N+](C)(C)C)c3ccccc32)sc2ccccc21 (stereo not drawn) | 6.79
CC(O)C[n+]1c(C=C2C=CN(CCC[N+]3(C)CCC(CCCC4CC[N+](C)(CCCN5C=CC(=Cc6sc7ccccc7[n+]6CC(C)O)c6ccc(Cl)cc65)CC4)CC3)c3cc(Cl)ccc32)sc2ccccc21 (stereo not drawn) | 7.41

tested on: poly rG–poly rC (RNA, polymer) G/C; assay: fluorimetric titration, Scatchard; details: Na+ (sodium cacodylate, I = 0.05 M); pH 7.0; apparent; per phosphate; n fixed at 0.2; dye 1.3–1.5 × 10^-7 M; per base

Compound | log Ks
CC(O)C[n+]1c(C=C2C=CN(CCC[N+]3(C)CCC(CCCC4CC[N+](C)(CCCN5C=CC(=Cc6sc7ccccc7[n+]6CC(C)O)c6ccccc65)CC4)CC3)c3ccccc32)sc2ccccc21 (stereo not drawn) | 4.79
CC(O)C[n+]1c(C=C2C=CN(CCC[N+](C)(C)CCC[N+](C)(C)CCCN3C=CC(=Cc4sc5ccccc5[n+]4CC(C)O)c4ccccc43)c3ccccc32)sc2ccccc21 (stereo not drawn) | 4.94
CC(O)C[n+]1c(C=C2C=CN(CCC[n+]3ccc(CCCc4cc[n+](CCCN5C=CC(=Cc6sc7ccccc7[n+]6CC(C)O)c6ccccc65)cc4)cc3)c3ccccc32)sc2ccccc21 (stereo not drawn) | 4.76
CC(O)C[n+]1c(C=C2C=CN(CCC[N+](C)(C)CCC[N+](C)(C)C)c3ccccc32)sc2ccccc21 (stereo not drawn) | 5.23
CC(O)C[n+]1c(C=C2C=CN(CCC[N+]3(C)CCC(CCCC4CC[N+](C)(CCCN5C=CC(=Cc6sc7ccccc7[n+]6CC(C)O)c6ccc(Cl)cc65)CC4)CC3)c3cc(Cl)ccc32)sc2ccccc21 (stereo not drawn) | 4.95

tested on: poly dAdT–poly dAdT (DNA, polymer) AT; assay: UV thermal melting at 260 nm; details: Na+ (sodium cacodylate, I = 0.05 M); pH 7.0; r = [compound]/[phosphate] = 0.2; polynucleotide 1–2 × 10^-5 M; per base

Compound | ΔTm
CC(O)C[n+]1c(C=C2C=CN(CCC[N+]3(C)CCC(CCCC4CC[N+](C)(CCCN5C=CC(=Cc6sc7ccccc7[n+]6CC(C)O)c6ccccc65)CC4)CC3)c3ccccc32)sc2ccccc21 (stereo not drawn) | 10.7 °C
CC(O)C[n+]1c(C=C2C=CN(CCC[N+](C)(C)CCC[N+](C)(C)CCCN3C=CC(=Cc4sc5ccccc5[n+]4CC(C)O)c4ccccc43)c3ccccc32)sc2ccccc21 (stereo not drawn) | 8.9 °C
CC(O)C[n+]1c(C=C2C=CN(CCC[N+](C)(C)CCC[N+](C)(C)C)c3ccccc32)sc2ccccc21 (stereo not drawn) | 28.6 °C
CC(O)C[n+]1c(C=C2C=CN(CCC[N+]3(C)CCC(CCCC4CC[N+](C)(CCCN5C=CC(=Cc6sc7ccccc7[n+]6CC(C)O)c6ccc(Cl)cc65)CC4)CC3)c3cc(Cl)ccc32)sc2ccccc21 (stereo not drawn) | 7.1 °C

tested on: poly rA–poly rU (RNA, polymer) A/U; assay: UV thermal melting at 260 nm; details: Na+ (sodium cacodylate, I = 0.05 M); pH 7.0; r = 0.1; destabilised (−19.1) at r = 0.2; polynucleotide 1–2 × 10^-5 M; per base

Compound | ΔTm
CC(O)C[n+]1c(C=C2C=CN(CCC[n+]3ccc(CCCc4cc[n+](CCCN5C=CC(=Cc6sc7ccccc7[n+]6CC(C)O)c6ccccc65)cc4)cc3)c3ccccc32)sc2ccccc21 (stereo not drawn) | 10.6 °C

same assay, conditions: Na+ (sodium cacodylate, I = 0.05 M); pH 7.0; r = [compound]/[phosphate] = 0.2; polynucleotide 1–2 × 10^-5 M; per base

Compound | ΔTm
CC(O)C[n+]1c(C=C2C=CN(CCC[N+]3(C)CCC(CCCC4CC[N+](C)(CCCN5C=CC(=Cc6sc7ccccc7[n+]6CC(C)O)c6ccccc65)CC4)CC3)c3ccccc32)sc2ccccc21 (stereo not drawn) | 0 °C
CC(O)C[n+]1c(C=C2C=CN(CCC[N+](C)(C)CCC[N+](C)(C)CCCN3C=CC(=Cc4sc5ccccc5[n+]4CC(C)O)c4ccccc43)c3ccccc32)sc2ccccc21 (stereo not drawn) | 3.0 °C
CC(O)C[n+]1c(C=C2C=CN(CCC[N+](C)(C)CCC[N+](C)(C)C)c3ccccc32)sc2ccccc21 (stereo not drawn) | 24.0 °C
CC(O)C[n+]1c(C=C2C=CN(CCC[N+]3(C)CCC(CCCC4CC[N+](C)(CCCN5C=CC(=Cc6sc7ccccc7[n+]6CC(C)O)c6ccc(Cl)cc65)CC4)CC3)c3cc(Cl)ccc32)sc2ccccc21 (stereo not drawn) | 0.6 °C

tested on: poly dA–poly dT (DNA, polymer) A/T; assay: fluorimetric titration, Scatchard; details: Na+ (sodium cacodylate, I = 0.05 M); pH 7.0; apparent; per phosphate; n fixed at 0.2; dye 1.3–1.5 × 10^-7 M; per base

Compound | log Ks
CC(O)C[n+]1c(C=C2C=CN(CCC[N+]3(C)CCC(CCCC4CC[N+](C)(CCCN5C=CC(=Cc6sc7ccccc7[n+]6CC(C)O)c6ccccc65)CC4)CC3)c3ccccc32)sc2ccccc21 (stereo not drawn) | 5.89
CC(O)C[n+]1c(C=C2C=CN(CCC[N+](C)(C)CCC[N+](C)(C)CCCN3C=CC(=Cc4sc5ccccc5[n+]4CC(C)O)c4ccccc43)c3ccccc32)sc2ccccc21 (stereo not drawn) | 6.19
CC(O)C[n+]1c(C=C2C=CN(CCC[n+]3ccc(CCCc4cc[n+](CCCN5C=CC(=Cc6sc7ccccc7[n+]6CC(C)O)c6ccccc65)cc4)cc3)c3ccccc32)sc2ccccc21 (stereo not drawn) | 6.23
CC(O)C[n+]1c(C=C2C=CN(CCC[N+](C)(C)CCC[N+](C)(C)C)c3ccccc32)sc2ccccc21 (stereo not drawn) | 6.41
CC(O)C[n+]1c(C=C2C=CN(CCC[N+]3(C)CCC(CCCC4CC[N+](C)(CCCN5C=CC(=Cc6sc7ccccc7[n+]6CC(C)O)c6ccc(Cl)cc65)CC4)CC3)c3cc(Cl)ccc32)sc2ccccc21 (stereo not drawn) | 5.91

tested on: poly dGdC–poly dGdC (DNA, polymer) GC; assay: fluorimetric titration, Scatchard; details: Na+ (sodium cacodylate, I = 0.05 M); pH 7.0; apparent; per phosphate; n fixed at 0.2; dye 1.3–1.5 × 10^-7 M; per base

Compound | log Ks
CC(O)C[n+]1c(C=C2C=CN(CCC[N+]3(C)CCC(CCCC4CC[N+](C)(CCCN5C=CC(=Cc6sc7ccccc7[n+]6CC(C)O)c6ccccc65)CC4)CC3)c3ccccc32)sc2ccccc21 (stereo not drawn) | 7.20
CC(O)C[n+]1c(C=C2C=CN(CCC[N+](C)(C)CCC[N+](C)(C)CCCN3C=CC(=Cc4sc5ccccc5[n+]4CC(C)O)c4ccccc43)c3ccccc32)sc2ccccc21 (stereo not drawn) | 7.64
CC(O)C[n+]1c(C=C2C=CN(CCC[n+]3ccc(CCCc4cc[n+](CCCN5C=CC(=Cc6sc7ccccc7[n+]6CC(C)O)c6ccccc65)cc4)cc3)c3ccccc32)sc2ccccc21 (stereo not drawn) | 7.04
CC(O)C[n+]1c(C=C2C=CN(CCC[N+](C)(C)CCC[N+](C)(C)C)c3ccccc32)sc2ccccc21 (stereo not drawn) | 6.98
CC(O)C[n+]1c(C=C2C=CN(CCC[N+]3(C)CCC(CCCC4CC[N+](C)(CCCN5C=CC(=Cc6sc7ccccc7[n+]6CC(C)O)c6ccc(Cl)cc65)CC4)CC3)c3cc(Cl)ccc32)sc2ccccc21 (stereo not drawn) | 7.40
